Assay results: patent US8541588B2, “Sulfonamide derivatives” (Pfizer Limited, priority 2009, dated 2013)

Biological target: T1, Nav1.7 (or SCN9A) channel; HEK cells stably transfected with hSCN9A (Homo sapiens, UniProt Q15858)
T1 construct: expressed in transfected cells
Assay: Nav1.7 block, PatchXpress 7000 automated whole-cell voltage clamp, estimated IC50 (EIC50)
Assay type: cell-based
Settings: estimated IC50, PatchXpress platform

[1] = hSCN9A HEK cells, Examples 815-1040
[2] = hSCN9A HEK cells, Examples 283-814

T1 sequence (Q15858 whole entry): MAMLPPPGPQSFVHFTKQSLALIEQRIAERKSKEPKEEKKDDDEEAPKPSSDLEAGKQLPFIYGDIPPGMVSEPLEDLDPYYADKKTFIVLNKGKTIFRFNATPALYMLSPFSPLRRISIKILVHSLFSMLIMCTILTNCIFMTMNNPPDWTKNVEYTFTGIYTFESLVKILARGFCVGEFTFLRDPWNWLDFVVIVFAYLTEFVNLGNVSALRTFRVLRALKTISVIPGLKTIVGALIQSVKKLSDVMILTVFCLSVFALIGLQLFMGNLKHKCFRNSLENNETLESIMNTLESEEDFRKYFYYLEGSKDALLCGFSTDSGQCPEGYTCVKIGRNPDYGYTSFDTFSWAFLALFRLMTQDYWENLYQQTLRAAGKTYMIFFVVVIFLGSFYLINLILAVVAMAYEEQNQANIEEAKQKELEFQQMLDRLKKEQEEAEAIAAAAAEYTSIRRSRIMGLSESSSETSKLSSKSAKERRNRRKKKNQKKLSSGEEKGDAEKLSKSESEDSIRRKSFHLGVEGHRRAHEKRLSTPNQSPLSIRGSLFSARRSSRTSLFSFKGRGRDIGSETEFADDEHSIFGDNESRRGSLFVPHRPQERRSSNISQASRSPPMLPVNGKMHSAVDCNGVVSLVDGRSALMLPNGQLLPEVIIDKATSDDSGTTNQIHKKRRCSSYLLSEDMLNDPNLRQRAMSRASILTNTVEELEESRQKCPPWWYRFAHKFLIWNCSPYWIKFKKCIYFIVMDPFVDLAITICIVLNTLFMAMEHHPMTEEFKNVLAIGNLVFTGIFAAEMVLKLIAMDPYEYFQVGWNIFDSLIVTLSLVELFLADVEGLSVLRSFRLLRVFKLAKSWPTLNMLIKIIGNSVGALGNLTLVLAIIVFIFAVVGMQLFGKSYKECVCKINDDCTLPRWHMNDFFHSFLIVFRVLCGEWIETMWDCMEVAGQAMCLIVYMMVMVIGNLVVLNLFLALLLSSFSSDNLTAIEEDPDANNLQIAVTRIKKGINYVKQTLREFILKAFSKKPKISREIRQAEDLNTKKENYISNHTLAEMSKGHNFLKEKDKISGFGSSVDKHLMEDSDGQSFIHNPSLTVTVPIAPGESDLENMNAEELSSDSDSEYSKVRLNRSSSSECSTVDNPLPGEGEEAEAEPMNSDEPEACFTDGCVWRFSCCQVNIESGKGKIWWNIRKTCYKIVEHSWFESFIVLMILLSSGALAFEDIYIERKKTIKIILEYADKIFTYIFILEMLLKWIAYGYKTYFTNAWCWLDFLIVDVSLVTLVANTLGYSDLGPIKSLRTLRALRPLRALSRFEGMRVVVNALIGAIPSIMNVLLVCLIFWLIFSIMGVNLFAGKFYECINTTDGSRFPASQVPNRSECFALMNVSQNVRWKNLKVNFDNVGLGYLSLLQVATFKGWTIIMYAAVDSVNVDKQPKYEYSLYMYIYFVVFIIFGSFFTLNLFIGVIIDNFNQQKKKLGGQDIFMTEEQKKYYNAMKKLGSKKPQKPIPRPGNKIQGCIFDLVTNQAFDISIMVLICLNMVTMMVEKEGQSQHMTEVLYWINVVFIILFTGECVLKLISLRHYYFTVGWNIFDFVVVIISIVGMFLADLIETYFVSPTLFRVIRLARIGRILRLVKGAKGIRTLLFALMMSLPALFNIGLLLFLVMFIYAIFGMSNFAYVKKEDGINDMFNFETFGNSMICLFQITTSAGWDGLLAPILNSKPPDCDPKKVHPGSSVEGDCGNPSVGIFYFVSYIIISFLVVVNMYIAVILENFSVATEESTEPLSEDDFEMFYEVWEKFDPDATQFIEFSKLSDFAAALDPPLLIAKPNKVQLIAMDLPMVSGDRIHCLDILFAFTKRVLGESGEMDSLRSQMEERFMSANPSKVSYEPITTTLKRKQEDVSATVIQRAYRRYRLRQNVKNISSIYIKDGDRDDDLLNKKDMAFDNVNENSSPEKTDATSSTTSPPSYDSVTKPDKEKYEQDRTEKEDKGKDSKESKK

Structure (SMILES) | IC50 [1] [nM] | IC50 [2] [nM] | other results
N#Cc1cc(S(=O)(=O)Nc2ncc(Cl)s2)ccc1Oc1ccc(Cl)cc1-c1ccnn1C1CNC1 [Example 559, 4-[2-(1-azetidin-3-yl-1H-pyrazol-5-yl)-4-chlorophenoxy]-N-(5-chloro-1,3-thiazol-2-yl)-3-cyanobenzenesulfonamide] | – | 0.7 | –
Cc1ccc(-c2ccnn2C)c(Oc2ccc(S(=O)(=O)Nc3nccs3)cc2C#N)c1 [Example 543, 3-cyano-4-[5-methyl-2-(1-methyl-1H-pyrazol-5-yl)phenoxy]-N-1,3-thiazol-2-ylbenzenesulfonamide] | – | 66 | –
O=S(=O)(Nc1cscn1)c1cc(F)c(Oc2ccc(C(F)(F)F)cc2-c2ccnn2C2CNC2)cc1F [Example 841, 4-[2-(1-azetidin-3-yl-1H-pyrazol-5-yl)-4-(trifluoromethyl)phenoxy]-2,5-difluoro-N-1,3-thiazol-4-ylbenzenesulfonamide] | 11 | – | –
CCOc1nnc(NS(=O)(=O)c2ccc(Oc3ccc(Cl)cc3-c3ccnn3C)c(C#N)c2)s1 [Example 886, 4-[4-chloro-2-(1-methyl-1H-pyrazol-5-yl)phenoxy]-3-cyano-N-(5-ethoxy-1,3,4-thiadiazol-2-yl)benzenesulfonamide] | 6200 | – | –
Cc1cc(S(=O)(=O)Nc2cscn2)ccc1Oc1ccccc1-c1ccnn1C [Example 628, 3-methyl-4-[2-(1-methyl-1H-pyrazol-5-yl)phenoxy]-N-1,3-thiazol-4-ylbenzenesulfonamide] | – | 1000 | –
N#Cc1cnc(NS(=O)(=O)c2ccc(Oc3ccccc3-c3ccccc3)c(C#N)c2)nc1 [Example 432, 4-(biphenyl-2-yloxy)-3-cyano-N-(5-cyanopyrimidin-2-yl)benzenesulfonamide] | – | >10000 | –
CC(C)Oc1cccc(-c2cc(F)ccc2Oc2ccc(S(=O)(=O)Nc3ncns3)cc2C#N)c1 [Example 5, 3-cyano-4-[(5-fluoro-3′-isopropoxybiphenyl-2-yl)oxy]-N-1,2,4-thiadiazol-5-ylbenzenesulfonamide] | – | – | IC50 (hSCN9A HEK cells held at V1/2 of inactivation): 70 nM
Cc1nc(-c2ccccc2Oc2ccc(S(=O)(=O)Nc3ccc(F)cn3)cc2C#N)cs1 [Example 572, 3-cyano-N-(5-fluoropyridin-2-yl)-4-[2-(2-methyl-1,3-thiazol-4-yl)phenoxy]benzenesulfonamide] | – | >30000 | –
Cc1scnc1NS(=O)(=O)c1ccc(Oc2ccccc2-c2ccccc2)c(C#N)c1 [Example 600, 4-(biphenyl-2-yloxy)-3-cyano-N-(5-methyl-1,3-thiazol-4-yl)benzenesulfonamide] | – | 15000 | –

Now from value to molecule, other results behind:

IC50 [1] [nM] | IC50 [2] [nM] | Structure (SMILES) | other results
660 | – | N#Cc1ccc(Oc2cc(F)c(S(=O)(=O)Nc3nncs3)cc2Cl)c(-c2ccnnc2)c1 [Example 925, 5-chloro-4-(4-cyano-2-pyridazin-4-ylphenoxy)-2-fluoro-N-1,3,4-thiadiazol-2-ylbenzenesulfonamide] | –
– | 81 | Cn1cc(-c2cc(Cl)ccc2Oc2ccc(S(=O)(=O)Nc3nccs3)cc2C#N)cn1 [Example 693, 4-[4-chloro-2-(1-methyl-1H-pyrazol-4-yl)phenoxy]-3-cyano-N-1,3-thiazol-2-ylbenzenesulfonamide] | –
– | 820 | O=S(=O)(Nc1cscn1)c1cc(F)c(Oc2ccc(Cl)cc2C2CNC2)cc1F [Example 604, 4-(2-azetidin-3-yl-4-chlorophenoxy)-2,5-difluoro-N-1,3-thiazol-4-ylbenzenesulfonamide] | –
– | 16 | O=S(=O)(Nc1ncns1)c1cc(F)c(Oc2ccc(Cl)cc2-c2ccn[nH]2)cc1F [Example 637, 4-[4-Chloro-2-(1H-pyrazol-5-yl)phenoxy]-2,5-difluoro-N-1,2,4-thiadiazol-5-ylbenzenesulfonamide] | –
19 | – | N#Cc1cc(S(=O)(=O)Nc2ncns2)ccc1Oc1cc(F)c(Cl)cc1-c1ccnnc1 [Example 924, 4-(4-chloro-5-fluoro-2-pyridazin-4-ylphenoxy)-3-cyano-N-1,2,4-thiadiazol-5-ylbenzenesulfonamide] | –
230 | – | O=S(=O)(Nc1ccc(F)cn1)c1cc(F)c(Oc2ccc(Cl)cc2-c2ccnnc2)cc1F [Example 846, 4-(4-chloro-2-pyridazin-4-ylphenoxy)-2,5-difluoro-N-(5-fluoropyridin-2-yl)benzenesulfonamide] | –
